Assays:
[1] = tested on: corneal epithelium in wounded mouse eyes; assay: In vivo healing of mouse corneal epithelium (corneal wound model, fluorescein staining); design: species or system mouse (C57BL/6); details: 25 nM (about 3 mg/kg) in aqueous PBS, applied after 1.5 mm epithelial wound; within 16 hours post-treatment; compared to PBS and EGF controls
Protocol: The FIG. 1s a series of photomicrographs depicting the healing of a wound in the cornea of mouse eye, at time 0 and 16 hours post-wounding, upon treatment with certain compositions of the present invention. Wounds were introduced into the corneas of mice, and the mice treated immediately after wounding with vehicle (PBS), with 100 ng/ml of epidermal growth factor (EGF), or with 25 nM (about 3 mg/kg) of a (Pro-Pro-Gly)7 CMP of the invention (SEQ ID NO:1) (“Cmpd 3”), or of a (Hyp-Pro-Gly)7-SubP CMP-TC of the invention (SEQ ID NO:390) (“Cmpd 10”).
To examine the possible therapeutic effects of CMPs and CMP-TC conjugates of the invention, studies were designed to test certain CMPs and CMP-TC conjugates in an in vivo setting—the healing of the corneal epithelium in wounded mouse eyes. […] Wound size at various time points over 48 hours was examined by fluorescein staining (see Carlson et al., id.), and documented via fluorescent photomicrography, and quantified using Image J software (see Rush, J. S. et al., Investig. Ophthalmol. Visual Sci. 57 (14): 5864-5871 (2016); Rush, J. S. et al., Investig. Ophthalmol. Visual Sci. 55 (8): 4691-4699 (2014)). […]

[2] = triple helix of the peptide chains; Sakakibara et al. 1973; cited from earlier work

Row | Substance | wound healing in mouse cornea and corneal stroma (reduction in diameter and intensity of fluorescein fluorescence) [1] | melting temperature of a triple helix [2]
1 | (Pro-Pro-Gly)7 [Cmpd 3] | significant acceleration of wound healing | 
2 | (Hyp-Pro-Gly)7-SubP [Cmpd 10] | significant acceleration of wound healing | 
3 | (ProHypGly)10 |  | 58 °C
4 | (ProProGly)10 |  | 24 °C
